Reference: patent publication US6599715B1, “Real time viability detection of bacterial spores” (priority 1999, dated 2003)

The compounds below were run on Bacillus globigii spores. Settings: relative germination; phase change monitored at 450 nm over 10 minutes; 3.6×10^8 spores per ml in 20 mM potassium phosphate buffer (pH 7.4).
Type: cell-based
Method: Bacillus cultures were grown at 30° C. with moderate aeration for 7 days. Spores were harvested by centrifugation at 10,900×g for 30 minutes at 4° C. and resuspended in 200 milliliters (ml) of sterile distilled water and washed 7 to 10 times, heated to 65° C. for 15 minutes to kill any vegetative cells, and stored at 4° C. Spore populations were determined from the average of 3 serial dilution plates.
B. globigii spores (500 microliters (μl)) were diluted to a concentration of 3.6×10^8 spores per ml in 20 millimolar (mM) potassium phosphate buffer (pH 7.4), and mixed with 500 μl of a 0.12 M solution of one or more of L-alanine, L-asparagine and D-glucose, together with DPA and other chemicals to test the effectiveness of various combinations as germinating agents. The phase change of the spores in the germinants was monitored at 450 nm over a period of 10 minutes.

With O=C[C@H](O)[C@@H](O)[C@H](O)[C@H](O)CO [20 mM D-glucose, D-glucose] as the compound, how does the Percent germination read?
The Percent germination was 7.0%.

For C[C@H](N)C(=O)O [20 mM L-alanine, L-alanine], which Percent germination is on record?
Its Percent germination is 50.1%.

For NC(=O)C[C@H](N)C(=O)O [20 mM L-asparagine, L-asparagine], which Percent germination is on record?
The Percent germination was 5.2%.

With O=C(O)c1cccc(C(=O)O)n1 [20 mM DPA, pyridine-2,6-dicarboxylic acid] as the compound, how does the Percent germination read?
The Percent germination was 7.3%.
